Results on 27 compounds are retold here after patent publication US20250154109A1, “SODIUM CHANNEL BLOCKING COMPOUNDS, DERIVATIVES THEREOF, AND METHODS OF THEIR USE” (LATIGO BIOTHERAPEUTICS, INC, priority 2022, published 2025).

The target in this assay is human Nav1.8 (Homo sapiens, UniProt Q9Y5Y9). The experiment in a line: SyncroPatch384PE assay (automated patch clamp). The class given is cell-based. Particulars: human Nav1.8/b3 CHO cells.
[1] abbreviates: inactivated state block (P2 measurement), read-out: P2 IC50.
Setting [2] is: resting state block (P1 measurement), read-out: P1 IC50.

Molecules are shown by their SMILES. Like-named read-outs stand apart in the source and are kept apart here.

Sequence of human Nav1.8 (Q9Y5Y9 whole entry): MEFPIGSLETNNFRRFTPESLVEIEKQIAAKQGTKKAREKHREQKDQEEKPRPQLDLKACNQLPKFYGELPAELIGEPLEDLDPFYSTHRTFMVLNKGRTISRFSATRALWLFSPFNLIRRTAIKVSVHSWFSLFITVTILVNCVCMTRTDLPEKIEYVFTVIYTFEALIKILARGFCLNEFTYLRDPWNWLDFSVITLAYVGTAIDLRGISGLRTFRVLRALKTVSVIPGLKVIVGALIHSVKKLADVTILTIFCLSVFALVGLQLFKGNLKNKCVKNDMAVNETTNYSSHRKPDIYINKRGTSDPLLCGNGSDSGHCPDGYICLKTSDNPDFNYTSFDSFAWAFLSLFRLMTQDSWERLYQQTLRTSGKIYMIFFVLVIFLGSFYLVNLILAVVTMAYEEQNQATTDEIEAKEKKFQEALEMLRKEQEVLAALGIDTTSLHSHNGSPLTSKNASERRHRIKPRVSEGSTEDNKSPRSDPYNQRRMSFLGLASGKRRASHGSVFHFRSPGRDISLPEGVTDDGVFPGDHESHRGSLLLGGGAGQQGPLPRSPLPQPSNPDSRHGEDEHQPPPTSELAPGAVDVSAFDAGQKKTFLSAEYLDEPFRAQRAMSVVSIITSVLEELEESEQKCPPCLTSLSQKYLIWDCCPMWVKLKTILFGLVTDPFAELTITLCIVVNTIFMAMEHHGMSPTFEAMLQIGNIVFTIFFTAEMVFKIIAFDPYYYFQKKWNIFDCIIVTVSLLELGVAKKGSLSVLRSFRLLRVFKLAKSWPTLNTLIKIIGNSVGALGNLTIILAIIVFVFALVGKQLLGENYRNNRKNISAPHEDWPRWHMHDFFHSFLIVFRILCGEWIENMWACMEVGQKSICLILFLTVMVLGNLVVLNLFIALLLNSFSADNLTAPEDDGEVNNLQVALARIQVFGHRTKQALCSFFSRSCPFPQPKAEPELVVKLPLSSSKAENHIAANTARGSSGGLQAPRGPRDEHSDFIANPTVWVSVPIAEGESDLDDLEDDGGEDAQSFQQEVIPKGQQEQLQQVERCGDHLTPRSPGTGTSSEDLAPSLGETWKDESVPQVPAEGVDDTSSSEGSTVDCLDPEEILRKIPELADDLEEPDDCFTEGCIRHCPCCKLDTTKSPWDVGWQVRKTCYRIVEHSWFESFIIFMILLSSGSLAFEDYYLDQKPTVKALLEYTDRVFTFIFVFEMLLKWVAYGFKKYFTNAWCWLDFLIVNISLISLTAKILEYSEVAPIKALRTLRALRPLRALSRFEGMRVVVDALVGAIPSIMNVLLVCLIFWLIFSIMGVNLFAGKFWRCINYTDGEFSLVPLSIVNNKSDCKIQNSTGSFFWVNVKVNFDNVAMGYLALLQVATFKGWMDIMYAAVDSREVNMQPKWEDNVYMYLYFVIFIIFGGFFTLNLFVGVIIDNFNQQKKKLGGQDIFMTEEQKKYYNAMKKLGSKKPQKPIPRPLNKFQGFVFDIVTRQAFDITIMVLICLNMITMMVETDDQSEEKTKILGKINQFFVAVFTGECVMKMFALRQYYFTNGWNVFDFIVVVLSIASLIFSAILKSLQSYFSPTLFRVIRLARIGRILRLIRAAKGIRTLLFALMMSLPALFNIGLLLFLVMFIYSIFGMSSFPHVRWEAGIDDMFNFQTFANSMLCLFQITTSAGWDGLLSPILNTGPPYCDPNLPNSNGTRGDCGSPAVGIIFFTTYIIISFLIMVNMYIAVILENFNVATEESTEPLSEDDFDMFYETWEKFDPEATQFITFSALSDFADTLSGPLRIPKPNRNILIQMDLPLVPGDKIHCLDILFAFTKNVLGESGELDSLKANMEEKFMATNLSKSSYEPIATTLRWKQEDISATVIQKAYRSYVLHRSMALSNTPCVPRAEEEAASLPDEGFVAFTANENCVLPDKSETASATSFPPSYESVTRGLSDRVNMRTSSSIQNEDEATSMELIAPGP

For `Cc1c(C(F)(F)F)nnc(N2CCCC(F)(F)CC2)c1C(=O)Nc1cccc([S@@](C)(=O)=NC(=O)[C@@H](C)N)c1` [Example 183, N-(3-((R)-N-(D-alanyl)-S-methylsulfonimidoyl)phenyl)-3-(4,4-difluoroazepan-1-yl)-5-methyl-6-(trifluoromethyl)pyridazine-4-carboxamide], the IC50 reads like this: under setting [1], at most 0.005 µM; under setting [2], at most 0.005 µM.
For `C[S@](=N)(=O)c1cccc(NC(=O)c2cc(C(F)(F)F)nnc2N2CCCC(F)(F)CC2)c1` [Example 19, (S)-3-(4,4-difluoroazepan-1-yl)-N-(3-(S-methylsulfonimidoyl)phenyl)-6-(trifluoromethyl)pyridazine-4-carboxamide], the IC50 was 0.1 to 0.2 µM under setting [1] and above 0.2 µM under setting [2].
Regarding `CS(=N)(=O)c1cccc(NC(=O)c2cc(C(F)(F)F)nnc2N2CCCC(F)(F)CC2)c1` (stereo not drawn) [Example 6, 3-(4,4-difluoroazepan-1-yl)-N-(3-(S-methylsulfonimidoyl)phenyl)-6-(trifluoromethyl)pyridazine-4-carboxamide], the IC50 by setting is: under setting [1], 0.005 to 0.05 µM; under setting [2], 0.005 to 0.05 µM.
As to `Cc1cc(C#N)nc(N2CCCC(F)(F)CC2)c1C(=O)Nc1cccc([S@](C)(=N)=O)c1` [Example 148, (R)-6-cyano-2-(4,4-difluoroazepan-1-yl)-4-methyl-N-(3-(S-methylsulfonimidoyl)phenyl)nicotinamide], the IC50 under setting [1] fell in the range of 0.005 to 0.05 µM and the IC50 under setting [2] lay within 0.005 to 0.05 µM.
With `COc1ccc(-c2nnc(N3CCCC(F)(F)CC3)c(C(=O)Nc3cccc([S@@](C)(=N)=O)c3)c2C)cc1` (single isomer, unassigned) [Example 137], the IC50 is, setting by setting: under setting [1], above 0.2 µM; under setting [2], above 0.2 µM.
With `Cc1c(C(F)(F)F)nnc(N2CC3(COC3)C2)c1C(=O)Nc1cccc(S(C)(=N)=O)c1` (stereo not drawn) [Example 100, 5-methyl-N-(3-(S-methylsulfonimidoyl)phenyl)-3-(2-oxa-6-azaspiro[3.3]heptan-6-yl)-6-(trifluoromethyl)pyridazine-4-carboxamide], the IC50 by setting is: under setting [1], above 0.2 µM; under setting [2], above 0.2 µM.
`Cc1c(-c2cnn(C)c2)cnc(N2CCCC(F)(F)CC2)c1C(=O)Nc1ccnc([S@](C)(=N)=O)c1` [Example 200, (R)-2-(4,4-difluoroazepan-1-yl)-4-methyl-5-(1-methyl-1H-pyrazol-4-yl)-N-(2-(S-methylsulfonimidoyl)pyridin-4-yl)nicotinamide]: the IC50 under setting [1] was in the range of 0.1 to 0.2 µM and the concentration for half-maximal inhibition (IC50) under setting [2] fell in the range of 0.1 to 0.2 µM.
`Cc1c(-c2cnn(C)c2)cnc(N2CCCC(F)(F)CC2)c1C(=O)Nc1cccc([S@@](C)(=O)=NCCN)c1` [Example 210, (R)-N-(3-(N-(2-aminoethyl)-S-methylsulfonimidoyl)phenyl)-2-(4,4-difluoroazepan-1-yl)-4-methyl-5-(1-methyl-1H-pyrazol-4-yl)nicotinamide 2,2,2-trifluoroacetate]: the IC50 reads like this: under setting [1], 0.005 to 0.05 µM; under setting [2], 0.005 to 0.05 µM.
Turning to `Cc1c(C(F)(F)F)cnc(N2CCCC(F)(F)CC2)c1C(=O)Nc1ccnc([S@@](C)(=N)=O)c1` (single isomer, unassigned) [Example 188], the IC50 was at most 0.005 µM under setting [1] and at most 0.005 µM under setting [2].
For `Cc1c(C#N)c(C(F)(F)F)nc(N2CCCC(F)(F)CC2)c1C(=O)Nc1cccc([S@@](C)(=O)=NC(=O)C2(N)CC2)c1` [Example 66, (R)-N-(3-(N-(1-aminocyclopropane-1-carbonyl)-S-methylsulfonimidoyl)phenyl)-5-cyano-2-(4,4-difluoroazepan-1-yl)-4-methyl-6-(trifluoromethyl)nicotinamide], the IC50 under setting [1] is at most 0.005 µM and the IC50 under setting [2] is at most 0.005 µM.
For `Cc1c(-c2cnn(C3CC3)c2)cnc(N2CCCC(F)(F)CC2)c1C(=O)Nc1cccc([S@](C)(=N)=O)c1` [Example 69, (R)-5-(1-cyclopropyl-1H-pyrazol-4-yl)-2-(4,4-difluoroazepan-1-yl)-4-methyl-N-(3-(S-methylsulfonimidoyl)phenyl)nicotinamide], the IC50 lay in the range of 0.005 to 0.05 µM under setting [1] and 0.005 to 0.05 µM under setting [2].
Take `Cc1c(-c2cnn(C)c2)cnc(N2CCCC(F)(F)CC2)c1C(=O)Nc1cccc([S@@](C)(=O)=NC(=O)CO)c1` [Example 229, (R)-2-(4,4-difluoroazepan-1-yl)-N-(3-(N-(2-hydroxyacetyl)-S-methylsulfonimidoyl)phenyl)-4-methyl-5-(1-methyl-1H-pyrazol-4-yl)nicotinamide]: the IC50 under setting [1] fell in the range of 0.005 to 0.05 µM and the IC50 under setting [2] lay in the range of 0.005 to 0.05 µM.
Consider `Cc1ncc(-c2cnc(N3CCCC(F)(F)CC3)c(C(=O)Nc3cccc([S@](C)(=N)=O)c3)c2C)o1` [Example 178, (R)-2-(4,4-difluoroazepan-1-yl)-4-methyl-5-(2-methyloxazol-5-yl)-N-(3-(S-methylsulfonimidoyl)phenyl)nicotinamide], for which the IC50 runs as follows: under setting [1], 0.005 to 0.05 µM; under setting [2], 0.005 to 0.05 µM.
As for `Cc1c(C(F)(F)F)nnc(N2CCCC(F)(F)CC2)c1C(=O)Nc1cccc([S@@](C)(=N)=O)c1` [Example 29, (S)-3-(4,4-Difluoroazepan-1-yl)-5-methyl-N-(3-(S-methylsulfonimidoyl)phenyl)-6-(trifluoromethyl)pyridazine-4-carboxamide], the IC50 under setting [1] was in the range of 0.005 to 0.05 µM and the IC50 under setting [2] was 0.005 to 0.05 µM.
On to `CNCC(=O)N=[S@@](C)(=O)c1cccc(NC(=O)c2c(N3CCCC(F)(F)CC3)nnc(C(F)(F)F)c2C)c1` [Example 44, (S)-3-(4,4-difluoroazepan-1-yl)-5-methyl-N-(3-(S-methyl-N-(methylglycyl)sulfonimidoyl)phenyl)-6-(trifluoromethyl)pyridazine-4-carboxamide], for which the IC50 lay within 0.005 to 0.05 µM under setting [1] and 0.005 to 0.05 µM under setting [2].
Regarding `O=C(Nc1ccnnc1)c1nnc(C(F)(F)F)cc1N1CCCC(F)(F)CC1` [Example 32, 4-(4,4-Difluoroazepan-1-yl)-N-(pyridazin-4-yl)-6-(trifluoromethyl)pyridazine-3-carboxamide], the IC50 was above 0.2 µM under setting [1] and above 0.2 µM under setting [2].
As to `Cc1c(-c2cnn(C)c2)cnc(N2CCCC(F)(F)CC2)c1C(=O)Nc1ccc(F)c([S@](C)(=N)=O)c1` [Example 214, (R)-2-(4,4-difluoroazepan-1-yl)-N-(4-fluoro-3-(S-methylsulfonimidoyl)phenyl)-4-methyl-5-(1-methyl-1H-pyrazol-4-yl)nicotinamide], the IC50 is, setting by setting: under setting [1], 0.1 to 0.2 µM; under setting [2], 0.1 to 0.2 µM.
Take `Cc1c(-c2ccc(C#N)cc2)cnc(N2CCCC(F)(F)CC2)c1C(=O)Nc1cccc(S(C)(=N)=O)c1` (stereo not drawn) [Example 81]: the IC50 under setting [1] was at most 0.005 µM and the IC50 under setting [2] was at most 0.005 µM.
For the compound `Cc1c(C(F)(F)F)nnc(N2CCCC(F)(F)CC2)c1C(=O)Nc1ccnnc1` [Example 31, 3-(4,4-Difluoroazepan-1-yl)-5-methyl-N-(pyridazin-4-yl)-6-(trifluoromethyl)pyridazine-4-carboxamide], the IC50 is above 0.2 µM under setting [1] and above 0.2 µM under setting [2].
Consider `Cc1c(C#N)cnc(N2CCCC(F)(F)CC2)c1C(=O)NC12CC(C(N)=O)(C1)C2` [Example 136, N-(3-carbamoylbicyclo[1.1.1]pentan-1-yl)-5-cyano-2-(4,4-difluoroazepan-1-yl)-4-methylnicotinamide], for which the IC50 by setting is: under setting [1], at most 0.005 µM; under setting [2], at most 0.005 µM.
Consider `Cc1c(C(F)(F)F)nnc(N2CCCC(F)(F)CC2)c1C(=O)Nc1cccc(S(C)(=N)=N)c1` [Example 120, 3-(4,4-difluoroazepan-1-yl)-N-{3-[diimino(methyl)-λ^6-sulfanyl]phenyl}-5-methyl-6-(trifluoromethyl)pyridazine-4-carboxamide], for which the IC50 was 0.05 to 0.1 µM under setting [1] and 0.1 to 0.2 µM under setting [2].
As to `Cc1c(C(F)(F)F)nnc(N2CCCC(F)(F)CC2)c1C(=O)Nc1cccc([S@@](C)(=O)=NC(=O)C(C)(C)N)c1` [Example 235, (R)-N-(3-(N-(2-amino-2-methylpropanoyl)-S-methylsulfonimidoyl)phenyl)-3-(4,4-difluoroazepan-1-yl)-5-methyl-6-(trifluoromethyl)pyridazine-4-carboxamide], the IC50 by setting is: under setting [1], at most 0.005 µM; under setting [2], at most 0.005 µM.
For the compound `Cc1c(N2CC(F)(F)C2)cnc(N2CCCC(F)(F)CC2)c1C(=O)Nc1cccc([S@](C)(=N)=O)c1` [Example 149, (R)-2-(4,4-difluoroazepan-1-yl)-5-(3,3-difluoroazetidin-1-yl)-4-methyl-N-(3-(S-methylsulfonimidoyl)phenyl)nicotinamide], the IC50 under setting [1] fell in the range of 0.005 to 0.05 µM and the IC50 under setting [2] was in the range of 0.005 to 0.05 µM.
As to `Cc1c(-c2ccc(C#N)cc2)cnc(N2CCCC(F)(F)CC2)c1C(=O)Nc1cccc([S@@](C)(=O)=NC(=O)C(C)(C)N)c1` [Example 55, (R)-N-(3-(N-(2-amino-2-methylpropanoyl)-S-methylsulfonimidoyl)phenyl)-5-(4-cyanophenyl)-2-(4,4-difluoroazepan-1-yl)-4-methylnicotinamide], the IC50 by setting is: under setting [1], at most 0.005 µM; under setting [2], at most 0.005 µM.
On to `Cc1c(-c2cccnc2)cnc(N2CCCC(F)(F)CC2)c1C(=O)Nc1cccc(S(C)(=N)=O)c1` (stereo not drawn) [Example 84, 6-(4,4-difluoroazepan-1-yl)-4-methyl-N-(3-(S-methylsulfonimidoyl)phenyl)-[3,3bipyridine]-5-carboxamide], for which the IC50 is 0.005 to 0.05 µM under setting [1] and 0.05 to 0.1 µM under setting [2].
On to `Cc1nc(N2CCCC(F)(F)CC2)c(C(=O)Nc2cccc(S(C)(=N)=O)c2)cc1C(F)(F)F` (stereo not drawn) [Example 3, 2-(4,4-difluoroazepan-1-yl)-6-methyl-N-(3-(S-methylsulfonimidoyl)phenyl)-5-(trifluoromethyl)nicotinamide], for which the IC50 reads like this: under setting [1], at most 0.005 µM; under setting [2], at most 0.005 µM.
Take `Cc1noc(C)c1-c1cnc(N2CCCC(F)(F)CC2)c(C(=O)Nc2cccc([S@](C)(=N)=O)c2)c1C` [Example 156, (R)-2-(4,4-difluoroazepan-1-yl)-5-(3,5-dimethylisoxazol-4-yl)-4-methyl-N-(3-(S-methylsulfonimidoyl)phenyl)nicotinamide]: the IC50 by setting is: under setting [1], above 0.2 µM; under setting [2], above 0.2 µM.
